“Also recorded” adds a separate entry of the source.
How the values were obtained:
aggregated HTT = experiment: Seprion ligand based ELISA of aggregate load; type: in vivo, mouse; details: chronic administration; 13 weeks of age; lower dose group study
Text: Aggregates were captured in Seprion ligand coated plates (Microsens) and detected using the S830 sheep polyclonal or MW8 mouse monoclonal antibodies as described.

PDE5 = system: PDE5; set-up: method as in PMID 9216839, PMID 17697115, PMID 8961086, PMID 7581878; details: [12] uses full length PDE5 derived from bovine lung, ref [12], [23], [27], [28], read-out: reported IC50; cited from earlier work
PDE2 = system: PDE2; set-up: method as in PMID 9216839, PMID 17697115, PMID 10618442, PMID 8961086, PMID 7581878; details: ref [12], [23], [25], [27], [28], read-out: previously reported potencies; cited from earlier work
R6/2 mice [1] = experiment: Lower dose behavioral efficacy study in R6/2 mice (Psychogenic); type: in vivo, mouse; details: lower doses, 0.3 – 3 mg/kg
R6/2 mice [2] = experiment: Chronic oral dosing in the R6/2 mouse model, overall disease progression; type: in vivo; details: chronic oral administration, 10 or 30 mg/kg BID p.o. from 4 weeks
Protocol: All animal experiments were carried out according to the National Institute of Health (NIH) guidelines for the care and use of laboratory animals, and approved by the National Laboratory Animal Board, Finland. 60 male and female R6/2 TG mice (R6/2J CAG 120 and 12 male and female wild-type littermate control mice were bred at National Animal Facility Center, Kuopio, Finland.
Mice were housed in groups of 4 and separated by sexes. In each cage, one wild-type mouse of the same sex, but different litter, was included in an attempt to provide normal social stimulation. Mice were allowed to acclimate to the experimental room for at least one hour prior to the beginning of any experiment. Mice were transported from the colony room to experimental rooms in their home cages. Experimentation was conducted in a blinded manner. Tail samples were taken at the end of the study for verification of genotypes and CAG sizes of individual mice.
(§1) All values are presented as mean ± Standard Error of Mean (SEM), and differences are considered to be statistically significant at the p < 0.05 level. Statistical analysis was performed using StatsDirect statistical software. Differences between group means were analyzed by 1-way-ANOVA followed by Dunnett’s test (comparison to the control (=vehicle treated TG mice) group). The acquisition of the Cued two-choice swim test was analyzed using Fisher’s exact test.

[3] = target: T1, human choline transporter (Homo sapiens, UniProt Q9GZV3); experiment: Cerep diversity panel screen at 10 µM; type: binding
T1 construct: Cerep (contract laboratory)
Protocol: Studies were conducted at Cerep (France)

R6/2 mice [4] = experiment: Cued Two-Choice Swim Test; type: in vivo, mouse; details: for Cued 2-CST Reversal, Correct Choice: p vs Vehicle-treated R6/2 mice / Cued 2-CST Acquisition, % of Mice Reaching Criterion: p vs Vehicle-treated R6/2 mice: BID; for Cued 2-CST Reversal, Correct Choice: p vs Vehicle-treated R6/2 mice: ANOVA; for Cued 2-CST Acquisition, % of Mice Reaching Criterion: p vs Vehicle-treated R6/2 mice: at 9 Weeks, Fisher's exact test
Protocol: The cued two-choice swim test was performed at 9 weeks of age. Testing was conducted under low light, white light conditions. The mice were taught to swim to (acquisition), or away from (reversal), a light positioned over the escape platform. Animals were placed within a rectangular tank (76 cm x 30 cm x 30 cm) filled with water maintained at 25°C ± 1°C. The water was rendered opaque by the addition of non-toxic white paint. The escape platform was located 0.5 cm below the surface of the water at one end of the tank. A light source with a 25W bulb (white light), oriented toward the water, was clipped to one side of the tank above the escape platform (7 cm in diameter with the borders slanted and roughened to help the rodents climb to it). Under these conditions, the light intensity is measured as 200 lux on the illuminated side of the tank, and 3 lux on the dark side of the tank. The platform was located on the lit side of the arena across acquisition trials, although the location of the lit side within the room relative to the mouse’s entry point was varied. The location of the bulb and platform was different on different trials for the same mouse. On each trial, mice were placed into the middle of the tank and allowed to swim for up to 60 sec, or until they found the platform. […] During all acquisition days, mice were given 8 trials per day (4 blocks of 2 trials, separated by an interblock interval of 20-30 minutes). Training continued in this way until each mouse performed at 75% correct choices for 2 consecutive days; upon reaching this criterion for successful acquisition of the task, mice were placed into the reversal phase on an individual basis. During reversal training, (4 blocks of 2 trials per day), the platform was placed on the dark side of the tank. On each trial during testing days, the latency to reach the platform was recorded (60 seconds if the platform was not reached) and the trial was scored as either “correct”, “incorrect” or “no choice”. The maximum number of days of acquisition was 12 days. All mice went from acquisition into the reversal phase and the experiment was stopped when 2 consecutive days of 75% criterion was reached or after a maximum of 7 days of reversal testing. A correct choice was scored if the animal turned in the direction of the platform and successfully mounted the platform. An incorrect choice was scored if the animal swam in the direction opposite the platform. […] To make a choice, a mouse had to swim within 20 cm of either end of the tank.
as §1

T1 sequence (Q9GZV3 whole entry): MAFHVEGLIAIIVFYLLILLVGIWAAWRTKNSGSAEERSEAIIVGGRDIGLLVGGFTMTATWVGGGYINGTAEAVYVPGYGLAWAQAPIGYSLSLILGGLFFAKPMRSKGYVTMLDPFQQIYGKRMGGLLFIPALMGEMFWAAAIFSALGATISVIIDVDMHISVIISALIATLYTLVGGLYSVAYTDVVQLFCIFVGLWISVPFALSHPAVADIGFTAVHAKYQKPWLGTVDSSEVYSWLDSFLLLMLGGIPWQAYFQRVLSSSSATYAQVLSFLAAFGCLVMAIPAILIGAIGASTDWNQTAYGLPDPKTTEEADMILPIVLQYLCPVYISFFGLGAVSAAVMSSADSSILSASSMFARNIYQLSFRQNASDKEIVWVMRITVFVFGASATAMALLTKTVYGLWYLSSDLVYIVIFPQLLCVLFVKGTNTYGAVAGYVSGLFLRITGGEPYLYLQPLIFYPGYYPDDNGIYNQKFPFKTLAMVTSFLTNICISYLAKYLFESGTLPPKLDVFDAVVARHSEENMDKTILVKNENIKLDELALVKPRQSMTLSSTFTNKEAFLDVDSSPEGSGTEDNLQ

Structure (SMILES): CN1C(=O)c2nc(Cc3ccc(C(F)(F)F)cc3)[nH]c2N2C1=N[C@H]1CCC[C@H]12 [SCH-51866, (+)-cis-5,6a,7,8,9,9a-hexahydro-2-[4-[trifluro-methyl]phenylmethyl]-5-methyl-cylopent[4,5]imidazo [2,1-b]purin-4(3H)one]
- aggregate load in the cortex and hippocampus (Seprion ligand ELISA) (aggregated HTT): no effect
- IC50 (PDE5): 0.06 µM
- IC50 (PDE2): 2 µM
- effect on disease progression / endpoints (rotarod, grip strength, open field, survival) (R6/2 mice [1]): no improvement noted in any endpoint; also recorded: no effect in ameliorating disease progression
- effect on R6/2 disease progression / disease-related phenotypes (R6/2 mice [2]): did not ameliorate disease progression; also recorded: did not modify any R6/2 disease-related phenotypes
- inhibition at 10 µM [3]: 94%
- Cued Two-Choice Swim Test: learning phase, reversal learning, latency to make the choice, effect in words (R6/2 mice [4]; R6/2 mice, 9 weeks of age): did not improve any of these parameters
- Cued 2-CST Reversal, Correct Choice: p vs Vehicle-treated R6/2 mice (R6/2 mice [4]; Test Day 1, 10 mg/kg p.o.): ANOVA: p=0.117
- Cued 2-CST Reversal, Correct Choice: p vs Vehicle-treated R6/2 mice (R6/2 mice [4]; Test Day 1, 30 mg/kg p.o.): ANOVA: p=0.117
- Cued 2-CST Reversal, Correct Choice: p vs Vehicle-treated R6/2 mice (R6/2 mice [4]; Test Day 2, 10 mg/kg p.o.): ANOVA: p=0.311
- Cued 2-CST Reversal, Correct Choice: p vs Vehicle-treated R6/2 mice (R6/2 mice [4]; Test Day 2, 30 mg/kg p.o.): ANOVA: p=0.311
- Cued 2-CST Reversal, Correct Choice: p vs Vehicle-treated R6/2 mice (R6/2 mice [4]; Test Day 3, 10 mg/kg p.o.): ANOVA: p=0.573
- Cued 2-CST Reversal, Correct Choice: p vs Vehicle-treated R6/2 mice (R6/2 mice [4]; Test Day 3, 30 mg/kg p.o.): ANOVA: p=0.573
- Cued 2-CST Reversal, Correct Choice: p vs Vehicle-treated R6/2 mice (R6/2 mice [4]; Test Day 4, 10 mg/kg p.o.): ANOVA: p=0.206
- Cued 2-CST Reversal, Correct Choice: p vs Vehicle-treated R6/2 mice (R6/2 mice [4]; Test Day 4, 30 mg/kg p.o.): ANOVA: p=0.206
- Cued 2-CST Reversal, Correct Choice: p vs Vehicle-treated R6/2 mice (R6/2 mice [4]; Test Day 5, 10 mg/kg p.o.): ANOVA: p=0.057
- Cued 2-CST Reversal, Correct Choice: p vs Vehicle-treated R6/2 mice (R6/2 mice [4]; Test Day 5, 30 mg/kg p.o.): ANOVA: p=0.057
- Cued 2-CST Reversal, Correct Choice: p vs Vehicle-treated R6/2 mice (R6/2 mice [4]; Test Day 6, 10 mg/kg p.o.): ANOVA: p=0.140
- Cued 2-CST Reversal, Correct Choice: p vs Vehicle-treated R6/2 mice (R6/2 mice [4]; Test Day 6, 30 mg/kg p.o.): ANOVA: p=0.140
- Cued 2-CST Acquisition, % of Mice Reaching Criterion: p vs Vehicle-treated R6/2 mice (R6/2 mice [4]; Test Day 2, 10 mg/kg p.o.): p>0.999
- Cued 2-CST Acquisition, % of Mice Reaching Criterion: p vs Vehicle-treated R6/2 mice (R6/2 mice [4]; Test Day 2, 30 mg/kg p.o.): p=0.487
- Cued 2-CST Acquisition, % of Mice Reaching Criterion: p vs Vehicle-treated R6/2 mice (R6/2 mice [4]; Test Day 3, 10 mg/kg p.o.): p>0.999
- Cued 2-CST Acquisition, % of Mice Reaching Criterion: p vs Vehicle-treated R6/2 mice (R6/2 mice [4]; Test Day 3, 30 mg/kg p.o.): p>0.999
- Cued 2-CST Acquisition, % of Mice Reaching Criterion: p vs Vehicle-treated R6/2 mice (R6/2 mice [4]; Test Day 4, 10 mg/kg p.o.): p>0.999
- Cued 2-CST Acquisition, % of Mice Reaching Criterion: p vs Vehicle-treated R6/2 mice (R6/2 mice [4]; Test Day 4, 30 mg/kg p.o.): p>0.999
- Cued 2-CST Acquisition, % of Mice Reaching Criterion: p vs Vehicle-treated R6/2 mice (R6/2 mice [4]; Test Day 5, 10 mg/kg p.o.): p>0.999
- Cued 2-CST Acquisition, % of Mice Reaching Criterion: p vs Vehicle-treated R6/2 mice (R6/2 mice [4]; Test Day 5, 30 mg/kg p.o.): p>0.999
- Cued 2-CST Acquisition, % of Mice Reaching Criterion: p vs Vehicle-treated R6/2 mice (R6/2 mice [4]; Test Day 6, 10 mg/kg p.o.): p=0.313
- Cued 2-CST Acquisition, % of Mice Reaching Criterion: p vs Vehicle-treated R6/2 mice (R6/2 mice [4]; Test Day 6, 30 mg/kg p.o.): p>0.999
- Cued 2-CST Acquisition, % of Mice Reaching Criterion: p vs Vehicle-treated R6/2 mice (R6/2 mice [4]; Test Day 7, 10 mg/kg p.o.): p=0.508
- Cued 2-CST Acquisition, % of Mice Reaching Criterion: p vs Vehicle-treated R6/2 mice (R6/2 mice [4]; Test Day 7, 30 mg/kg p.o.): p=0.752
- Cued 2-CST Acquisition, % of Mice Reaching Criterion: p vs Vehicle-treated R6/2 mice (R6/2 mice [4]; Test Day 8, 10 mg/kg p.o.): p=0.313
- Cued 2-CST Acquisition, % of Mice Reaching Criterion: p vs Vehicle-treated R6/2 mice (R6/2 mice [4]; Test Day 8, 30 mg/kg p.o.): p=0.751
- Cued 2-CST Acquisition, % of Mice Reaching Criterion: p vs Vehicle-treated R6/2 mice (R6/2 mice [4]; Test Day 9, 10 mg/kg p.o.): p>0.999
- Cued 2-CST Acquisition, % of Mice Reaching Criterion: p vs Vehicle-treated R6/2 mice (R6/2 mice [4]; Test Day 9, 30 mg/kg p.o.): p>0.999
- Cued 2-CST Acquisition, % of Mice Reaching Criterion: p vs Vehicle-treated R6/2 mice (R6/2 mice [4]; Test Day 10, 10 mg/kg p.o.): p>0.999
- Cued 2-CST Acquisition, % of Mice Reaching Criterion: p vs Vehicle-treated R6/2 mice (R6/2 mice [4]; Test Day 10, 30 mg/kg p.o.): p>0.999
- Cued 2-CST Acquisition, % of Mice Reaching Criterion: p vs Vehicle-treated R6/2 mice (R6/2 mice [4]; Test Day 11, 10 mg/kg p.o.): p>0.999
- Cued 2-CST Acquisition, % of Mice Reaching Criterion: p vs Vehicle-treated R6/2 mice (R6/2 mice [4]; Test Day 11, 30 mg/kg p.o.): p=0.716
- Cued 2-CST Acquisition, % of Mice Reaching Criterion: p vs Vehicle-treated R6/2 mice (R6/2 mice [4]; Test Day 12, 10 mg/kg p.o.): p>0.999
- Cued 2-CST Acquisition, % of Mice Reaching Criterion: p vs Vehicle-treated R6/2 mice (R6/2 mice [4]; Test Day 12, 30 mg/kg p.o.): p>0.999

Reference: publication PMC3923778 (PLoS Currents, 2014)
